From patent US9115380B2, “Kits and methods for generating 5′ capped RNA” (priority 2006, dated 2015)
“And” between values parts separate entries of the source, which are not always exact repeats. Equal entries are not always repeated. “Also recorded” adds a separate entry of the source. Where two headings read alike, the source gives them in different places.

Legend:
[1] = target: vaccinia mRNA (nucleoside-2′-O—) methyltransferase (Vaccinia virus, UniProt P07617); assay type: biochemical
[2] = system: tobacco acid pyrophosphatase (TAP); assay type: biochemical
[3] = system: rabbit reticulocyte lysate; assay type: biochemical
wheat germ lysate = assay type: biochemical
vaccinia capping enzyme = vaccinia capping enzyme (Vaccinia virus, UniProt P04298); assay type: biochemical
[4] = target: vaccinia capping enzyme (guanine 7-methyltransferase activity) (Vaccinia virus, UniProt P04298); assay type: biochemical
[5] = target: RNA guanyltransferase activity of the vaccinia capping enzyme system (Vaccinia virus, UniProt P04298); settings: cited from earlier work
BDCM cells = assay type: cell-based; settings: for relative translation efficiency: poly(A)-tailed Renilla luciferase RNA
HeLa cells = assay type: cell-based; settings: GTP-capped poly(A)-tailed Renilla luciferase RNA
[6] = rabbit reticulocyte lysate, poly(A)-tailed Renilla luciferase RNA, cap 0 structure, GTP-capped cap 0 RNA = 100%
[7] = rabbit reticulocyte lysate, poly(A)-tailed Renilla luciferase RNA, cap I structure
[8] = rabbit reticulocyte lysate, poly(A)-tailed firefly luciferase RNA, cap I structure
[9] = wheat germ lysate, poly(A)-tailed Renilla luciferase RNA, cap 0 structure, GTP-capped cap 0 RNA = 100%
[10] = wheat germ lysate, poly(A)-tailed Renilla luciferase RNA, cap I structure
[11] = capped RNA prepared per Method 6
[12] = cap 0 structure, GTP-capped cap 0 RNA = 100%
[13] = cap I structure, GTP-capped RNA = 100%

Nc1nc2c(ncn2[C@@H]2O[C@H](COP(=O)(O)OP(=O)(O)OP(=O)(O)O)[C@@H](O)[C@H]2F)c(=O)[nH]1 [2′-F-dGTP, 2′-fluoro-2′-deoxyguanosine-5′-triphosphate]
methylation of the 2′-hydroxyl of the 5′-penultimate nucleotide by mRNA (nucleoside-2′-O—) methyltransferase [1]: 52-base radioactive band was observed | removal of the cap nucleotide by tobacco acid pyrophosphatase (51-base band on PAGE) ([2]; capped RNA prepared per Method 6 except in the absence of S-adenosyl-L-methionine): 51-base band was observed | average relative translation efficiency [3, 6]: 55% | average relative translation efficiency [3, 7]: 107% | average relative translation efficiency [3, 8]: 133% | relative translation efficiency (wheat germ lysate; [9]): 53% | relative translation efficiency (wheat germ lysate; [10]): 61%

Cn1c(N)nc2c(ncn2[C@@H]2O[C@H](COP(=O)(O)OP(=O)(O)OP(=O)(O)O)[C@@H](O)[C@H]2O)c1=O [N^1-methyl-GTP, N^1-methylguanosine-5′-triphosphate]
conversion of 51-base primary RNA transcript to 52-base capped RNA (in words) (vaccinia capping enzyme): quantitatively converted | substrate for the capping enzyme system (51-base primary RNA transcript converted into 52-base capped RNA) (vaccinia capping enzyme): substrates for the capping enzyme system | methylation of the N^7 position of the cap nucleotide (radioactive methyl group in 52-base band) [4]: did not contain any radioactivity | relative translation efficiency (wheat germ lysate): 31%

Nc1nc2c(ncn2[C@@H]2O[C@H](COP(=O)(O)O)[C@@H](O)[C@H]2O)c(=O)[nH]1 [GMP]
use in place of GTP in an in vitro capping reaction [5]: could not be used in place of GTP

CO[C@@H]1[C@H](O)[C@@H](COP(=O)(O)OP(=O)(O)OP(=O)(O)O)O[C@H]1n1cnc2c(=O)[nH]c(N)nc21 [2′-OMe-GTP, 2′-O-methylguanosine-5′-triphosphate]
methylation of the 2′-hydroxyl of the 5′-penultimate nucleotide by mRNA (nucleoside-2′-O—) methyltransferase [1]: 52-base radioactive band was observed | removal of the cap nucleotide by tobacco acid pyrophosphatase (51-base band on PAGE) [2]: 51-base band was observed | average relative translation efficiency [3]: 132% and 97% and 170% | relative translation efficiency (wheat germ lysate): 36% and 47%

[N-]=[N+]=N[C@@H]1[C@H](O)[C@@H](COP(=O)(O)OP(=O)(O)OP(=O)(O)O)O[C@H]1n1cnc2c(=O)[nH]c(N)nc21 [2′-azido-dGTP, 2′-azido-2′-deoxyguanosine-5′-triphosphate]
methylation of the 2′-hydroxyl of the 5′-penultimate nucleotide by mRNA (nucleoside-2′-O—) methyltransferase [1]: 52-base radioactive band was observed | average relative translation efficiency [3, 6]: 99% | average relative translation efficiency [3, 7]: 79% | average relative translation efficiency [3, 8]: 107% | relative translation efficiency (wheat germ lysate; [9]): 41% | relative translation efficiency (wheat germ lysate; [10]): 42%

Nc1nc2c(ncn2[C@@H]2O[C@H](COP(=O)(O)OP(=O)(O)OP(=O)(O)O)[C@@H](O)[C@H]2N)c(=O)[nH]1 [2′-amino-dGTP, 2′-amino-2′-deoxyguanosine-5′-triphosphate]
conversion of 51-base primary RNA transcript to 52-base capped RNA (in words) (vaccinia capping enzyme): quantitatively converted | methylation of the 2′-hydroxyl of the 5′-penultimate nucleotide by mRNA (nucleoside-2′-O—) methyltransferase [1]: 52-base radioactive band was observed | removal of the cap nucleotide by tobacco acid pyrophosphatase (51-base band on PAGE) [2, 11]: 51-base band was observed | relative translation efficiency (BDCM cells; [12]): 150% | relative translation efficiency (BDCM cells; [13]): 177% | average relative translation efficiency [3, 6]: 148% | average relative translation efficiency [3, 7]: 144% | average relative translation efficiency [3, 8]: 100% | relative translation efficiency (wheat germ lysate; [9]): 90% | relative translation efficiency (wheat germ lysate; [10]): 110%

COc1nc(N)nc2c1ncn2[C@@H]1O[C@H](COP(=O)(O)OP(=O)(O)OP(=O)(O)O)[C@@H](O)[C@H]1O [O^6-methyl-GTP, O^6-methylguanosine-5′-triphosphate]
51-base primary RNA transcript converted into 52-base capped RNA (vaccinia capping enzyme): approximately 70% | substrate for the capping enzyme system (51-base primary RNA transcript converted into 52-base capped RNA) (vaccinia capping enzyme): substrates for the capping enzyme system | conversion of 51-base primary RNA transcript into 52-base capped RNA (in words) [4]: quantitatively converted | methylation of the N^7 position of the cap nucleotide (radioactive methyl group in 52-base band) [4]: catalyzed formation of N^7-methylated capped RNA | relative translation efficiency (BDCM cells; [12]): 115% | relative translation efficiency (BDCM cells; [13]): 117% | average relative translation efficiency [3, 6]: 167% | average relative translation efficiency [3, 7]: 122% | average relative translation efficiency [3, 8]: 97% | relative translation efficiency (wheat germ lysate; [9]): 80% | relative translation efficiency (wheat germ lysate; [10]): 59%

Nc1nc2c(ncn2[C@@H]2O[C@H](COP(=O)(O)OP(=O)(O)OP(=O)(O)O)C[C@H]2O)c(=O)[nH]1 [3′-dGTP, 3′-deoxyguanosine-5′-triphosphate]
average relative translation efficiency [3, 6]: 80% | average relative translation efficiency [3, 7]: 64% | average relative translation efficiency [3, 8]: 98% | relative translation efficiency (wheat germ lysate; [10]): 31%

CO[C@H]1[C@@H](O)[C@H](n2cnc3c(=O)[nH]c(N)nc32)O[C@@H]1COP(=O)(O)OP(=O)(O)OP(=O)(O)O [3′-OMe-GTP, 3′-O-methylguanosine-5′-triphosphate]
conversion of 51-base primary RNA transcript to 52-base capped RNA (in words) (vaccinia capping enzyme): quantitatively converted | methylation of the 2′-hydroxyl of the 5′-penultimate nucleotide by mRNA (nucleoside-2′-O—) methyltransferase [1]: 52-base radioactive band was observed | removal of the cap nucleotide by tobacco acid pyrophosphatase (51-base band on PAGE) [2, 11]: 51-base band was observed | average relative translation efficiency [3, 6]: 82% | average relative translation efficiency [3, 7]: 84% | average relative translation efficiency [3, 8]: 137% | relative translation efficiency (wheat germ lysate; [9]): 39% | relative translation efficiency (wheat germ lysate; [10]): 43%

Cn1c[n+]([C@@H]2O[C@H](COP(=O)(O)OP(=O)([O-])OP(=O)(O)O)[C@@H](O)[C@H]2O)c2nc(N)[nH]c(=O)c21 [N^7-methyl-GTP, reference compound]
substrate for the capping enzyme system (51-base primary RNA transcript converted into 52-base capped RNA) (vaccinia capping enzyme): not substrates for the capping enzyme system | use in place of GTP in an in vitro capping reaction [5]: could not be used in place of GTP

Nc1nc2c(ncn2[C@@H]2O[C@H](COP(=O)(O)OP(=O)(O)OP(=O)(O)O)[C@@H](O)[C@H]2O)c(=O)[nH]1 [GTP, reference compound]
conversion of 51-base primary RNA transcript to 52-base capped RNA (in words) (vaccinia capping enzyme): quantitatively converted | conversion of 51-base primary RNA transcript into 52-base capped RNA (in words) [4]: quantitatively converted | methylation of the N^7 position of the cap nucleotide (radioactive methyl group in 52-base band) [4]: contained the radioactive methyl group | RLUs with cap I structure relative to cap 0 structure (HeLa cells): about 2.2 times higher | RLUs with cap I structure relative to cap 0 structure (BDCM cells; GTP-capped poly(A)-tailed Renilla luciferase RNA): about 1.3 times higher

Nc1ncnc2c1ncn2[C@@H]1O[C@H](COP(=O)(O)OP(=O)(O)OP(=O)(O)O)[C@@H](O)[C@H]1O [ATP, reference compound]
substrate for the capping enzyme system (51-base primary RNA transcript converted into 52-base capped RNA) (vaccinia capping enzyme): not substrates for the capping enzyme system | use in place of GTP in an in vitro capping reaction [5]: could not be used in place of GTP

Nc1nc2c(ncn2[C@H]2C[C@H](N)[C@@H](COP(=O)(O)OP(=O)(O)OP(=O)(O)O)O2)c(=O)[nH]1 [3′-amino-2′,3′-ddGTP, 3′-amino-2′,3′-dideoxyguanosine-5′-triphosphate]
substrate for the capping enzyme system (51-base primary RNA transcript converted into 52-base capped RNA) (vaccinia capping enzyme): substrates for the capping enzyme system

Nc1nc2c(ncn2[C@@H]2O[C@H](COP(=O)(O)OP(=O)(O)O)[C@@H](O)[C@H]2O)c(=O)[nH]1 [GDP]
use in place of GTP in an in vitro capping reaction [5]: could not be used in place of GTP

Nc1nc2c(ccn2[C@@H]2O[C@H](COP(=O)(O)OP(=O)(O)OP(=O)(O)O)[C@@H](O)[C@H]2O)c(=O)[nH]1 [7-deaza-GTP, reference compound]
substrate for the capping enzyme system (51-base primary RNA transcript converted into 52-base capped RNA) (vaccinia capping enzyme): not substrates for the capping enzyme system

Nc1nc2c(ncn2[C@H]2CC[C@@H](COP(=O)(O)OP(=O)(O)OP(=O)(O)O)O2)c(=O)[nH]1 [2′,3′-ddGTP, 2′,3′-dideoxy-GTP, reference compound]
substrate for the capping enzyme system (51-base primary RNA transcript converted into 52-base capped RNA) (vaccinia capping enzyme): not substrates for the capping enzyme system; also recorded: not a substrate for the capping enzyme system

O=c1ccn([C@@H]2O[C@H](COP(=O)(O)OP(=O)(O)OP(=O)(O)O)[C@@H](O)[C@H]2O)c(=O)[nH]1 [UTP]
use in place of GTP in an in vitro capping reaction [5]: could not be used in place of GTP

Nc1ccn([C@@H]2O[C@H](COP(=O)(O)OP(=O)(O)OP(=O)(O)O)[C@@H](O)[C@H]2O)c(=O)n1 [CTP]
use in place of GTP in an in vitro capping reaction [5]: could not be used in place of GTP

[N-]=[N+]=N[C@H]1C[C@H](n2cnc3c(=O)[nH]c(N)nc32)O[C@@H]1COP(=O)(O)OP(=O)(O)OP(=O)(O)O [3′-azido-2′,3′-ddGTP, 3′-azido-2′,3′-dideoxyguanosine-5′-triphosphate]
substrate for the capping enzyme system (51-base primary RNA transcript converted into 52-base capped RNA) (vaccinia capping enzyme): substrates for the capping enzyme system

O=c1[nH]cnc2c1ncn2[C@@H]1O[C@H](COP(=O)(O)OP(=O)(O)OP(=O)(O)O)[C@@H](O)[C@H]1O [ITP]
use in place of GTP in an in vitro capping reaction [5]: could not be used in place of GTP

CO[C@H]1[C@@H](O)[C@H]([n+]2cn(C)c3c(=O)[nH]c(N)nc32)O[C@@H]1COP(=O)([O-])OP(=O)(O)OP(=O)(O)OC[C@H]1O[C@@H](n2cnc3c(=O)[nH]c(N)nc32)[C@H](O)[C@@H]1O [m2^7,3′-OGpppG, reference compound]
relative translation efficiency (BDCM cells; [12]): 130% | relative translation efficiency (BDCM cells; [13]): 102%
